Measured values: ChEMBL document CHEMBL1201862, “PubChem BioAssay data set” (2004)
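Where inhibition never reached the appropriate level, the endpoint shown equals the highest concentration tested. Otherwise, values were interpolated linearly from a five-concentration, 48-hour dose response in 96-well plates. GI50 is the concentration that inhibits growth by half.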 The source made the active and inactive calls. Cut-off read from the data, not from the text of the source: active = GI50 up to about 1.1 µM and inactive = higher.

Key:
Assay in all cases: NCI tumour cell line growth inhibition, 48 h
CAKI-1 = system: CAKI-1
COLO 205 = system: COLO 205
EKVX = system: EKVX
HCC 2998 = system: HCC 2998
HOP-62 = system: HOP-62
HOP-92 = system: HOP-92
M14 = system: M14
MCF7 = system: MCF7
MOLT-4 = system: MOLT-4
NCI-H226 = system: NCI-H226
OVCAR-3 = system: OVCAR-3
OVCAR-5 = system: OVCAR-5
PC-3 = system: PC-3
SF-295 = system: SF-295
SF-539 = system: SF-539
SK-MEL-2 = system: SK-MEL-2
SNB-19 = system: SNB-19
SW-620 = system: SW-620
TK-10 = system: TK-10
UACC-62 = system: UACC-62

Measured: GI50

CN(C)CCNS(=O)(=O)c1ccc(N)cc1
inactive: CAKI-1 > 100 µM | COLO 205 > 100 µM | EKVX > 100 µM | HCC 2998 > 100 µM | HOP-62 18.5 µM | HOP-92 > 100 µM | M14 > 100 µM | MCF7 > 100 µM | MOLT-4 > 100 µM | NCI-H226 > 100 µM | OVCAR-3 17.2 µM | OVCAR-5 > 100 µM | PC-3 19.9 µM | SF-295 > 100 µM | SF-539 > 100 µM | SK-MEL-2 18 µM | SNB-19 > 100 µM | SW-620 > 100 µM | TK-10 > 100 µM | UACC-62 > 100 µM
